Data: ChEMBL document CHEMBL5321213, “Nicolaioidesin C: An Antiausterity Agent Shows Promising Antitumor Activity in a Pancreatic Cancer Xenograft Mouse Model” (J Nat Prod, 2023)
The source made the active and inactive calls. The rule behind the calls is not given here.

What was measured:
[1] = tested on: MIA PaCa-2; assay: Preferential cytotoxicity against human MIA PaCa-2 cells in nutrient-deprived medium measured after 24 hrs by WST-8 cell counting analysis; format: functional
[2] = tested on: MIA PaCa-2; assay: Antitumor activity against human MIA PaCa-2 cells xenografted in athymic BALB/c-nu mouse assessed as fold change in valine level in tumor at 10 mg/kg/day, ip administered five times per week for 4 weeks by LC-MS analysis; format: functional
[3] = tested on: MIA PaCa-2; assay: Antitumor activity against human MIA PaCa-2 cells xenografted in athymic BALB/c-nu mouse assessed as fold change in phenyl alanine level in tumor at 10 mg/kg/day, ip administered five times per week for 4 weeks by LC-MS analysis; format: functional
[4] = tested on: PANC-1; assay: Inhibition of Akt/mTOR signaling pathway in human PANC-1 cells in nutrient-deprived medium assessed as reduction in mTOR phosphorylation at S2481 residue measured after 6 hrs by Western blot analysis; format: cell-based; conditions: dose 5-20 µM
[5] = tested on: PANC-1; assay: Inhibition of autophagy in human PANC-1 cells in nutrient-deprived medium assessed as downregulation of LC3-II protein expression measured after 6 hrs by Western blot analysis; format: functional, cell-based; conditions: dose 5-20 µM
[6] = tested on: MIA PaCa-2; assay: Inhibition of autophagy in human MIA PaCa-2 cells in nutrient-deprived medium assessed as downregulation of LC3-II protein expression measured after 6 hrs by Western blot analysis; format: functional, cell-based; conditions: dose 5-20 µM
[7] = tested on: PANC-1; assay: Antimetastatic activity in human PANC-1 cells in DMEM media assessed as inhibition of colony formation at 20 uM incubated for 24 hrs followed by replacement with fresh medium and measured after 10 days by crystal violet staining-based assay relative to control; format: functional
[8] = tested on: PANC-1; assay: Antimetastatic activity in human PANC-1 cells in DMEM media assessed as inhibition of colony formation at 40 uM incubated for 24 hrs followed by replacement with fresh medium and measured after 10 days by crystal violet staining-based assay relative to control; format: functional
[9] = tested on: MIA PaCa-2; assay: Antitumor activity against human MIA PaCa-2 cells xenografted in athymic BALB/c-nu mouse assessed as tumor wet weight at 2 mg/kg/day, ip administered five times per week for 4 weeks (reference value: 368 mg); format: functional
[10] = tested on: MIA PaCa-2; assay: Antitumor activity against human MIA PaCa-2 cells xenografted in athymic BALB/c-nu mouse assessed as fold change in methionine level in tumor at 10 mg/kg/day, ip administered five times per week for 4 weeks by LC-MS analysis; format: functional
[11] = tested on: MIA PaCa-2; assay: Antitumor activity against human MIA PaCa-2 cells xenografted in athymic BALB/c-nu mouse assessed as fold change in proline level in tumor at 10 mg/kg/day, ip administered five times per week for 4 weeks by LC-MS analysis; format: functional
[12] = tested on: MIA PaCa-2; assay: Antitumor activity against human MIA PaCa-2 cells xenografted in athymic BALB/c-nu mouse assessed as fold change in cytidine level in tumor at 10 mg/kg/day, ip administered five times per week for 4 weeks by LC-MS analysis; format: functional
[13] = tested on: MIA PaCa-2; assay: Antitumor activity against human MIA PaCa-2 cells xenografted in athymic BALB/c-nu mouse assessed as fold change in 5'-methylthioadenosine level in tumor at 10 mg/kg/day, ip administered five times per week for 4 weeks by LC-MS analysis; format: functional
[14] = tested on: MIA PaCa-2; assay: Antitumor activity against human MIA PaCa-2 cells xenografted in athymic BALB/c-nu mouse assessed as fold change in uracil level in tumor at 10 mg/kg/day, ip administered five times per week for 4 weeks by LC-MS analysis; format: functional
[15] = tested on: MIA PaCa-2; assay: Preferential cytotoxicity against human MIA PaCa-2 cells in nutrient-deprived medium assessed as alteration in cell morphology by measuring cell blebbing at 5 uM measured after 24 hrs by acridine orange and ethidium bromide dual fluorescent staining based imaging analysis; format: functional
[16] = tested on: PANC-1; assay: Preferential cytotoxicity against human PANC-1 cells in nutrient-deprived medium assessed as alteration in cell morphology by measuring rupture of cell membrane at 5 uM measured after 24 hrs by acridine orange and ethidium bromide dual fluorescent staining based imaging analysis; format: functional
[17] = tested on: PANC-1; assay: Antimetastatic activity in human PANC-1 cells in nutrient-rich medium assessed as open wound area at 20 uM measured every 15 mins for 48 hrs by live cell imaging analysis relative to control; format: functional
[18] = tested on: MIA PaCa-2; assay: Inhibition of autophagy in human MIA PaCa-2 cells in DMEM medium assessed as downregulation of LC3 protein expression at 5 to 20 uM measured after 6 hrs by Western blot analysis; format: functional, cell-based; conditions: dose 5-20 µM
[19] = tested on: MIA PaCa-2; assay: Antitumor activity against human MIA PaCa-2 cells xenografted in athymic BALB/c-nu mouse assessed as fold change in 1-aminocyclopropanecarboxylicacid level in tumor at 10 mg/kg/day, ip administered five times per week for 4 weeks by LC-MS analysis; format: functional
[20] = tested on: MIA PaCa-2; assay: Antitumor activity against human MIA PaCa-2 cells xenografted in athymic BALB/c-nu mouse assessed as fold change in arabinosyl hypoxanthine level in tumor at 10 mg/kg/day, ip administered five times per week for 4 weeks by LC-MS analysis; format: functional
[21] = tested on: MIA PaCa-2; assay: Antitumor activity against human MIA PaCa-2 cells xenografted in athymic BALB/c-nu mouse assessed as fold change in benzoic acid level in tumor at 10 mg/kg/day, ip administered five times per week for 4 weeks by LC-MS analysis; format: functional
[22] = tested on: MIA PaCa-2; assay: Antitumor activity against human MIA PaCa-2 cells xenografted in athymic BALB/c-nu mouse assessed as fold change in biotin level in tumor at 10 mg/kg/day, ip administered five times per week for 4 weeks by LC-MS analysis; format: functional
[23] = tested on: MIA PaCa-2; assay: Antitumor activity against human MIA PaCa-2 cells xenografted in athymic BALB/c-nu mouse assessed as fold change in Gly-Leu metabolite level in tumor at 10 mg/kg/day, ip administered five times per week for 4 weeks by LC-MS analysis; format: functional
[24] = tested on: MIA PaCa-2; assay: Antitumor activity against human MIA PaCa-2 cells xenografted in athymic BALB/c-nu mouse assessed as fold change in tetramethyl urea level in tumor at 10 mg/kg/day, ip administered five times per week for 4 weeks by LC-MS analysis; format: functional
[25] = tested on: MIA PaCa-2; assay: Antitumor activity against human MIA PaCa-2 cells xenografted in athymic BALB/c-nu mouse assessed as fold change in 2'-deoxycytidine level in tumor at 2 mg/kg/day, ip administered five times per week for 4 weeks by LC-MS analysis; format: functional
[26] = tested on: MIA PaCa-2; assay: Antitumor activity against human MIA PaCa-2 cells xenografted in athymic BALB/c-nu mouse assessed as fold change in cytidine 5'-monophosphate level in tumor at 2 mg/kg/day, ip administered five times per week for 4 weeks by LC-MS analysis; format: functional
[27] = tested on: MIA PaCa-2; assay: Antitumor activity against human MIA PaCa-2 cells xenografted in athymic BALB/c-nu mouse assessed as fold change in D-glucosamine 6-phosphate level in tumor at 2 mg/kg/day, ip administered five times per week for 4 weeks by LC-MS analysis; format: functional
[28] = tested on: MIA PaCa-2; assay: Antitumor activity against human MIA PaCa-2 cells xenografted in athymic BALB/c-nu mouse assessed as fold change in N-acetylneuraminic acid level in tumor at 2 mg/kg/day, ip administered five times per week for 4 weeks by LC-MS analysis; format: functional
[29] = tested on: MIA PaCa-2; assay: Antitumor activity against human MIA PaCa-2 cells xenografted in athymic BALB/c-nu mouse assessed as fold change in tetramethyl urea level in tumor at 2 mg/kg/day, ip administered five times per week for 4 weeks by LC-MS analysis; format: functional

COc1cc(O)c(C(=O)[C@@H]2CC=C(CCC=C(C)C)C[C@H]2c2ccccc2)c(O)c1
PC50 [1]: 2.9 µM
fold change (FC) [2]: 0.47
fold change (FC) [3]: 0.43
inhibition [4]: Dose-Dependent Effect
inhibition [5]: Dose-Dependent Effect
inhibition [6]: Dose-Dependent Effect
inhibition at 20 µM [7]: 82%
inhibition at 40 µM [8]: 92%
Activity [9]: 181 mg
fold change (FC) [10]: 0.38
fold change (FC) [11]: 0.53
fold change (FC) [12]: 0.35
fold change (FC) [13]: 0.25
fold change (FC) [14]: 0.09
Activity [15]: Active
Activity [16]: Active
Activity [17]: 24%
inhibition [18]: inactive
fold change (FC) [19]: 0.61
fold change (FC) [20]: 0.21
fold change (FC) [21]: 0.43
fold change (FC) [22]: 0.43
fold change (FC) [23]: 0.4
fold change (FC) [24]: 0.51
fold change (FC) [25]: 0.63
fold change (FC) [26]: 0.4
fold change (FC) [27]: 0.4
fold change (FC) [28]: 0.33
fold change (FC) [29]: 0.76
